How the values were obtained:
[1] = cited from earlier work
Open-field test = assay type: in vivo, mice; conditions: 50 mg/(kg body weight/day) i.p., 21 days, open field 10 minutes
Protocol: After 21 days of continuous administration, 3-month-old male mice were subjected to the behavioral open-field test. (A) Average movement speed of mice in the open field. (B) Total movement distance of mice in the open field. (C) Total time for the mice moving in the center of the open field.
After continuous administration for 21 days, the animal behavior test was performed, in which the open-field test is a behavioral paradigm for evaluating the exercise ability and anxiety of experimental animals. In the open-field test, mice were placed in the center of the open field box (40 cm (L)×40 cm (W)×40 cm (H)), and Smart Video Tracking Software (Panlab, Harvard Apparatus) was used for data acquisition and analysis. Mice were allowed to explore freely in the open field for 10 minutes, and the Mean speed, Total distance and Time in center of mice were recorded.

Down's model mice Ts65Dn [2] = test: Morris water maze test, Ts65Dn; assay type: in vivo; conditions: 50 mg/(kg body weight/day) i.p., 21 days
From the text: (§1) After 21 days of continuous administration, 3-month-old male mice were subjected to the Morris water maze test. (A) The latency for the mice to reach the platform during the 6-day water maze hidden platform training. (B) The average speed of swimming for the mice in the water maze of the platform test on day 7. (C) The latency for the mice to reach the area where the platform is located for the first time in the platform test on day 7. (D) The number of times for which the mice shuttled in the area where the platform is located in the platform test on day 7. (E) The swimming trajectory for the mice in the platform test on day 7. […] The ns represents no significant difference, i.e., p>0.05, ** represents p<0.01, *** represents p<0.001, **** represents p<0.0001.
(§2) After continuous administration for 21 days, learning and memory related animal behavior test Morris water maze test was performed. Smart Video Tracking Software (Panlab, Harvard Apparatus) was used for data acquisition and analysis. The Morris water maze is a circular water tank with a diameter of 90 cm, a height of 35 cm, and a water depth of 30 cm. The water temperature was maintained at 22° C. Different markers were placed in the visual field of mice (pool wall), and four water entry points (E, S, W, N) were marked on the pool wall so that the maze was divided into four quadrants. A platform with a diameter of 6 cm was installed in the ES quadrant, so that the water surface was 1 cm higher than the platform. Mice were trained twice a day and put into the water from E, S, W and N entry points facing the wall of the pool, respectively. The movement trajectory of the mice was captured by a camera, and the time from entering the water to climbing up the platform was recorded, that is, Escape latency. The system set a test time of 60 seconds, and the system automatically shut down after the mice climbed on the platform and stay for 10 seconds. […] The positioning navigation experiment last for 6 days, and on day 7, the platform was removed. Mice were placed on the opposite side of the platform to the wall of the pool, and the space exploration experiment was carried out. The number of times of crossing in the original platform area (Target crossing) and the Latency of 1st entrance to target were recorded.

Down's model mice Dp16 [3] = test: Morris water maze test, Dp16; assay type: in vivo; conditions: 30 mg/(kg body weight/day) intragastric, 21 days
From the text: as §1, with “p>0.05, * represents p<0.05,” for “p>0.05,”, “p<0.001.” for “p<0.001, **** represents p<0.0001.”
as §2, with “The” for “The positioning navigation experiment last for 6 days, and on day 7, the platform was removed. Mice were placed on the opposite side of the platform to the wall of the pool, and the space exploration experiment was carried out. The”, “recorded. […]” for “recorded.”

[4] = 50 mg/(kg body weight/day) i.p., 21 days, plasma
[5] = tested on: primary microglia of Dp16 mice; test: Phagocytosis of fluorescent spheres by primary microglia; assay type: cell-based; conditions: 0.6 mM, fluorescent spheres added at 45th hour, staining at 48th hour
From the text: (A) Representative images of immunofluorescence labeled microglia marker Iba1, nuclear dye DAPI and fluorescent spheres, and the scale is 10 m. (B) Statistics of fluorescence intensity of fluorescent spheres in each Iba1-positive cell. Data represents the mean±standard error (SEM) and is statistically analyzed using One-way ANOVA. The ns represents no significant difference, i.e., p>0.05, ** represents p<0.01, **** represents p<0.0001.
(§3) Newborn wild-type (WT) mice and Dp16 Down's model mice were placed on ice for 5 min, immersed in pre-cooled 75% alcohol for 10 s, decapitated and stripped of the skull, and the whole brain was removed and placed in pre-cooled HBSS. Under a stereoscope, the vascular membrane of brain tissue was stripped and cut into pieces with tweezers, repeatedly blown and beaten evenly with a 5 ml pipette tip, resuspended in precooled HBSS, and screened with a 100-mesh cell sieve to remove cell debris. […] The cells were resuspended and counted. […] Fluorescent spheres (10000×, Fluoresbrite® microsphere) were added at the 45th hour, and immunofluorescence staining was performed at the 48th hour to label microglia marker Iba1, nuclear dye DAPI and fluorescent spheres GFP, respectively, and then images were collected by laser confocal fluorescence microscopy.

Alzheimer's disease mice = conditions: by inhibiting the production of β-amyloid protein in the brain; cited from earlier work
Down's model mice Ts65Dn [6] = test: LTP recording in brain slices (Schaffer collateral pathway CA3 to CA1); assay type: in vivo; conditions: 50 mg/(kg body weight/day) i.p., 21 days
Protocol: After 21 days of continuous administration, electrophysiological studies on brain slice were performed. After anesthesia, the mice were incubated in an ice-cooled artificial cerebrospinal fluid (ACSF) with oxygen. After slicing, the brain slices were incubated in ACSF saturated with oxygen at 32° C. for 1 H. The recording electrode was placed in the radiation layer of CA1 area of Schaffer collateral pathway, and the stimulating electrode was placed in CA3 area. Stimulation intensity was 30% of the maximum value of fEPSP. After the stable baseline of fEPSP was recorded for 20 mins, LTP was induced by high frequency stimulation (HFS) (2 strings of stimulation, each of which contained 100 stimulation pulses, and was separated by 30 seconds) and recorded for 60 mins.

Down's model mice Ts65Dn [7] = test: Synapse number by transmission electron microscopy; assay type: in vivo; conditions: 50 mg/(kg body weight/day) i.p., 21 days
From the text: (A) A representative image of a transmission electron micrograph. Arrows indicate synaptic structures, and the scale is 1 m. (B) Statistics result of the number of synapses. (C) Statistics result of the number of presynaptic vesicles. (D) statistical result of the length of postsynaptic density (PSD). (E) Statistical results of the area of postsynaptic density (PSD). Data represents the mean±standard error (SEM) and is statistically analyzed using One-way ANOVA, with 4 mice in each group, and 38-42 fields of view are statistically analyzed respectively. The ns represents no significant difference, i.e., p>0.05, * represents p<0.05.
[…] The pieces were fixed with pre-cooled, fresh 2.5% glutaraldehyde fixative at 4° C. for more than 4 hours. At the end of fixation, the pieces were washed with PBS for 15 min for three times, then dehydrated, sectioned and prepared, and finally the images are collected by transmission electron microscopy.

Down's model mice Dp16 [8] = test: Iba1 immunofluorescence of hippocampus (microgliosis), Dp16; assay type: in vivo; conditions: 30 mg/(kg body weight/day) intragastric, 21 days
From the text: (A) A representative map of immunofluorescence labeled microglia marker Iba1 in the DG region of mice hippocampus, and the scale is 100 m. (B) Statistical results of Iba1 positive cells in mice hippocampus. Data represents the mean±standard error (SEM) and is statistically analyzed using One-way ANOVA, with 8 mice in each group. **** represents p<0.0001.
(§4) The microglia marker Iba1 and nuclear dye DAPI were respectively labeled by immunofluorescence staining, and then the images were collected by laser confocal fluorescence microscopy.

Down's model mice Dp16 [9] = test: Iba1/CD68 immunofluorescence of hippocampus (microglial phagocytic function), Dp16; assay type: in vivo; conditions: 30 mg/(kg body weight/day) intragastric, 21 days
From the text: (A) A representative map of immunofluorescence labeled microglia marker Iba1 and lysosomal phagocytosis marker CD68 in the region of mice hippocampus, and the scale is 50 m. (B) The statistical results of the proportion of Iba1-positive and CD68-positive cells in the total Iba1-positive cells in the mice hippocampus. Data represents the mean±standard error (SEM) and is statistically analyzed using One-way ANOVA, with 8 mice in each group. The ns represents no significant difference, i.e., p>0.05, *** represents p<0.001, **** represents p<0.0001.
The microglia marker Iba1 and lysosomal phagocytosis markers CD68 were respectively labeled by immunofluorescence staining, and then the images were collected by laser confocal fluorescence microscopy.

Down's model mice Ts65Dn [10] = test: Iba1 immunofluorescence of hippocampus (microgliosis), Ts65Dn; assay type: in vivo; conditions: 50 mg/(kg body weight/day) i.p., 21 days
From the text: (A) A representative map of immunofluorescence labeled microglia marker Iba1 in the DG region of mice hippocampus, and the scale is 75 m. (B) Statistical results of Iba1 positive cells in mice hippocampus. Data represents the mean±standard error (SEM) and is statistically analyzed using One-way ANOVA, with 4 mice in each group. ** represents p<0.01 and *** represents p<0.001.
as §4

[11] = Body weight after 21 days of administration; assay type: in vivo; conditions: WT and Ts65Dn mice, 50 mg/(kg body weight/day) i.p.
Protocol: All of the used mice were 3-month-old male mice administered continuously for 21 days, and then weighed.
The mice were administered continuously for 21 days and then weighed.

[12] = tested on: primary microglia of Dp16 mice; test: Phagocytosis of myelin debris by primary microglia; assay type: cell-based; conditions: 0.6 mM, myelin debris added at 45 hours, staining at 48 hours
From the text: (A) Representative images of immunofluorescence labeled microglia marker Iba1, nuclear dye DAPI and myelin sheath debris (pHrodo is pre-labeled on myelin sheath), and the scale is 20 m. (B) Statistics of fluorescence intensity of myelin sheath debris in each Iba1-positive cell. Data represents the mean±standard error (SEM) and is statistically analyzed using One-way ANOVA. The ns represents no significant difference, i.e., p>0.05, ** represents p<0.01, *** represents p<0.001, **** represents p<0.0001.
as §3, with “Myelin debris (1.2 μg/L)” for “Fluorescent spheres (10000×, Fluoresbrite® microsphere)”, “45 hours,” for “the 45th hour,”, “48 hours” for “the 48th hour”, “myelin debris (pHrodo was labeled on the myelin sheath in advance),” for “fluorescent spheres GFP,”

CCCC(CCC)C(=O)O [VPA, sodium valproate]
binding to plasma proteins in blood ([1]; blood): mostly combined with plasma proteins
absorption by oral administration ([1]; oral administration): absorbed rapidly and completely
anxiety-related behaviors (Time in center) (Open-field test): do not show anxiety-related behaviors
locomotor ability (Mean speed, Total distance) (Open-field test): no significant effects
Latency of 1st entrance to target, day 7 (Down's model mice Ts65Dn [2]): reduces
latency to search the platform (Escape latency), first 6 days of training (Down's model mice Ts65Dn [2]): significantly reduce
number of times the mouse shuttled the area where the platform was located (Target crossing), day 7 (Down's model mice Ts65Dn [2]): significantly increases
spatial learning and memory deficits (Down's model mice Ts65Dn [2]): significantly reverse
Latency of 1st entrance to target, day 7 (Down's model mice Dp16 [3]): reduces
number of times the mouse shuttled the area where the platform was located, day 7 (Down's model mice Dp16 [3]): significantly increases
spatial learning and memory deficits (Down's model mice Dp16 [3]): significantly reverse
toxic effects on mice (blood biochemical analysis) [4]: no significant toxic effects
phagocytic function of fluorescent spheres by primary microglia [5]: significantly enhances
cognitive function of Alzheimer's disease mice (Alzheimer's disease mice): reverse the cognitive function
Long term potentiation (LTP) of Schaffer collateral pathway from hippocampal CA3 to CA1 (Down's model mice Ts65Dn [6]): significantly enhances
number of synapses in the hippocampal neurons (Down's model mice Ts65Dn [7]): significantly increases
number of microglia in the hippocampus (Iba1 positive cells) (Down's model mice Dp16 [8]): significantly reduces
phagocytic function of hippocampal microglial cells (Iba1-positive and CD68-positive cells) (Down's model mice Dp16 [9]): significantly enhances
number of microglia in the hippocampus (Iba1 positive cells) (Down's model mice Ts65Dn [10]): significantly reduces
body weight of mice [11]: does not affect
phagocytic function of myelin debris by primary microglia [12]: significantly enhances
